In general, IC50 refers to the concentration needed to halve the response being measured.

The target in this assay is T1, human PAD4 (Homo sapiens, UniProt Q9UM07).
T1 construct: human PAD4 (NM_012387), A2-P663, was PCR amplified; His-SUMO (N, cleaved yes); made in house; host or cells: E. coli BL21(DE3)
Briefly: In vitro PAD4 BAEE biochemical assay. As to conditions: BAEE substrate 3 mM, 5 nM PAD4, 2 mM calcium chloride; geometric mean of multiple experiments. The source says:
In Vitro PAD4 BAEE Biochemical Assay
The enzymatic activity of human PAD4 was monitored in a biochemical assay in the presence or absence of compounds using the small peptidyl arginine mimic BAEE (Na-Benzoyl-L-arginine ethyl ester hydrochloride) as substrate. PAD4 activity led to deimination of BAEE and release of ammonia. Levels of ammonia were monitored by using an amine coupling reaction and were indicative of PAD4 enzymatic activity.
One hundred nanoliters of test compounds dissolved in DMSO at various concentrations were dispensed into a 384-well black OptiPlate using a Labcyte Echo instrument. Ten microliters of a solution of recombinant PAD4 and calcium chloride diluted in PAD4 assay buffer (50 mM MOPS [3-(N-morpholino) propanesulfonic acid], pH 7.6; 50 mM sodium chloride; 0.05% Tween-20; 2 mM dithiothreitol) was added to the compound-containing plate and was incubated for 30 minutes at 25° C. Ten microliters of a solution of BAEE (Sigma-Aldrich #B4500) diluted in PAD4 assay buffer was then added to start the reaction. Final concentrations were 5 nM PAD4, 2 mM calcium chloride, and 3 mM BAEE. The reaction mixture was incubated at 25° C. for 2 hours and was stopped with the addition of 10 microliters of a solution of 75 mM EDTA (Ethylenediaminetetraacetic acid) in PAD4 assay buffer. Thirty microliters of detection solution (5 mM o-phthalaldehyde, 50 mM MOPS [3-(N-morpholino) propanesulfonic acid], pH 7.6; 50 mM sodium chloride; 0.05% Tween-20; 5 mM dithiothreitol) was then added and the reaction was incubated for 1 hour at 25° C. The level of fluorescent thiol-substituted isoindole resulting from the reaction of ammonia, o-phthalaldehyde, and dithiothreitol was measured on an Envision plate reader (PerkinElmer) with 405 nm excitation and 535 nm emission.
Data were normalized based on maximum inhibition (50 micromolar of the covalent PAD inhibitor BB-Cl-Amidine (Bicker, K. L.; Anguish, L.; Chumanevich, A. A.; Cameron, M. D.; Cui, X.; Witalison, E.; Subramanian, V.; Zhang, X.; Chumanevich, A. P.; Hofseth, L. J.; Coonrod, S. A.; Thompson, P. R. ACS Med. Chem. Lett. 2012, 3, 1081-1085). and no inhibition (DMSO) controls. Least squares curve fittings were performed using a four-parameter variable slope nonlinear regression model. IC50 is defined as the concentration of compound required to inhibit 50% of maximum activity. IC50 values from multiple experiments were averaged by geometric mean and the standard deviation was calculated.

T1 sequence (Q9UM07 2-663): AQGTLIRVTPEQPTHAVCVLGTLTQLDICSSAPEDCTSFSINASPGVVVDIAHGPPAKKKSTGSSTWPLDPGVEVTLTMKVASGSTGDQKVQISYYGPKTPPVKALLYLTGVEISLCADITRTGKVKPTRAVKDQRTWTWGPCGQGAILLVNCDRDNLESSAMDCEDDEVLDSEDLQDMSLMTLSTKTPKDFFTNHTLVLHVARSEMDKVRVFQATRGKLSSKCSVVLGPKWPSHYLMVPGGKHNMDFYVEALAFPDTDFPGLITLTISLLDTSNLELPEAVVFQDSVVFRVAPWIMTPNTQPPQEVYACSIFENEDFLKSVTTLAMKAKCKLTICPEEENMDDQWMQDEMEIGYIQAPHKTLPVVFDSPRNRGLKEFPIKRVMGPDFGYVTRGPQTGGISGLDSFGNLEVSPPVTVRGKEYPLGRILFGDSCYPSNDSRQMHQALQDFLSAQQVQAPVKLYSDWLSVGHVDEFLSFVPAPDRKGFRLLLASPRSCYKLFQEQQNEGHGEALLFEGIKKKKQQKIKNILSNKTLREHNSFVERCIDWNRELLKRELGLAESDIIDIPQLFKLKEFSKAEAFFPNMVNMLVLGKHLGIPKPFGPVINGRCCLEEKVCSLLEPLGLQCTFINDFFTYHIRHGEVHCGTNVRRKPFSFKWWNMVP

Consider `COc1ccnc2c1C(=O)N[C@H](C)c1ccc3cc(-c4nc5cc(C(=O)N6CC[C@@H](OC)[C@@H](N)C6)cc(OC)c5n4C)n(c3n1)CCCCC2` [Example 630, (2~{R})-17-[5-[(3~{S),4~ {R})-3-amino-4-methoxy-piperidine-1-carbonyl]-7-methoxy-1-methyl-benzimidazol-2-yl]-6-methoxy-2-methyl-3,9,16,22-tetrazatetracyclo[14.5.2.0^ {5,10}.0^{19,23}] tricosa-1(22),5(10), 6,8,17,19(23),20-heptaen-4-one], for which the IC50 was determined as 122 nM.

For the compound `CO[C@@H]1CCN(C(=O)c2cc(F)c3c(c2)nc(-c2cc4ccc5nc4n2CCCCCc2nccnc2C(=O)N[C@@H]5C)n3C)C[C@@H]1N` [Example 513, (2~{R})-17-[5-[(3~ {S},4~{R})-3-amino-4-methoxy-piperidine-1-carbonyl]-7-fluoro-1-methyl-benzimidazol-2-yl]-2-methyl-3,6,9,16,22-pentazatetracyclo[14.5.2.0^ {5,10}.0^{19,23}] tricosa-1(22),5(10),6,8,17,19 (23),20-heptaen-4-one], the IC50 is 161 nM.

`C[C@H]1NC(=O)c2ccc(Cl)nc2CC[C@@H]2C[C@H]2Cn2c(-c3nc4cc(C(=O)N5C[C@H](N)[C@@H]6CC[C@H]5C6)cc(F)c4n3C3CC3)cc3ccc1nc32` [Example 879, (3~{R},5~{R},16~{R})-22-[5-[(1~{S},4~{R}, 5~{R})-4-amino-2-azabicyclo[3.2.1]octane-2-carbonyl]-1-cyclopropyl-7-fluoro-benzimidazol-2-yl]-10-chloro-16-methyl-1,9,15,24-tetrazapentacyclo[15.5.2.0^ {3,5}.0^{8,13}.0^{20,23}] tetracosa-8(13),9,11,17(24), 18,20(23),21-heptaen-14-one]: the IC50 is 34 nM.

Take `C[C@H]1NC(=O)C(C)(C)CCCCCCn2c(-c3nc4cc(C(=O)N[C@H]5CNCC[C@@H]5F)c(C#N)cc4n3C)cc3ccc1nc32` [Example 596, 6-cyano-~{N}-[(3~{S},4~ {S})-4-fluoro-3-piperidyl]-1-methyl-2-[(11~{R})-8,8,11-trimethyl-9-oxo-1,10,19-triazatricyclo[10.5.2.0^ {15,18}]nonadeca-12,14,16,18-tetraen-17-yl] benzimidazole-5-carboxamide]: the IC50 amounted to 3580 nM.

With `CO[C@@H]1CCN(C(=O)c2cc(F)c3c(c2)nc(-c2cc4ccc5nc4n2CCCCCc2cncc(F)c2C(=O)N[C@@H]5C)n3C2CC2)C[C@@H]1N` [Example 662, (2~{R})-17-[5-[(3~{S},4~ {R})-3-amino-4-methoxy-piperidine-1-carbonyl]-1-cyclopropyl-7-fluoro-benzimidazol-2-yl]-6-fluoro-2-methyl-3,8,16,22-tetrazatetracyclo[14.5.2.0^ {5,10}.0^{19,23}] tricosa-1(22),5,7,9,17,19(23), 20-heptaen-4-one], the 50% inhibitory concentration (IC50) came to 32 nM.

With `COc1cc(C(=O)N2C[C@H]3OC[C@@H]2[C@@H]3N)cc2nc(-c3cc4ccc5nc4n3CCCCCCC(C)(C)C(=O)N[C@@H]5C)n(C)c12` [Example 708, (11~{R})-17-[5-[(1~{R},4~{S), 7~{S})-7-amino-2-oxa-5-azabicyclo[2.2.1]heptane-5-carbonyl]-7-methoxy-1-methyl-benzimidazol-2-yl]-8,8,11-trimethyl-1,10,19-triazatricyclo[10.5.2.0^ {15,18}]nonadeca-12(19),13,15(18),16-tetraen-9-one], the IC50 was found to be 91 nM.

Turning to `COc1cc(C(=O)N2C[C@H](N)[C@@H]3CC[C@H]2C3)cc2nc(-c3cc4ccc5nc4n3CCCCCc3nccnc3C(=O)N[C@@H]5C)n(C)c12` [Example 484, (2~{R})-17-[5-[(1~{S},4~{R},5~{R})-4-amino-2-azabicyclo[3.2.1]octane-2-carbonyl]-7-methoxy-1-methyl-benzimidazol-2-yl]-2-methyl-3,6,9,16,22-pentazatetracyclo[14.5.2.0^{5,10}.0^{19, 23}]tricosa-1(22),5(10),6,8,17,19(23),20-heptaen-4-one], the 50% inhibitory concentration (IC50) worked out at 44 nM.

`C[C@H]1NC(=O)[C@@H]2C[C@@]2(F)CC[C@@H]2C[C@@H]2Cn2c(-c3nc4cc(C(=O)N5C[C@H](N)[C@@H]6CC[C@H]5C6)cc(F)c4n3C3CC3)cc3ccc1nc32` [Example 918, (3~{S},5~{R},8~{S},10~{S}, 13~{R})-19-[5-[(1~{S), 4~{R},5~{R})-4-amino-2-azabicyclo[3.2.1]octane-2-carbonyl]-1-cyclopropyl-7-fluoro-benzimidazol-2-yl]-8-fluoro-13-methyl-1,12,21-triazapentacyclo[12.5.2.0^ {3,5}.0^{8,10}.0^{17,20}] henicosa-14(21),15, 17(20),18-tetraen-11-one]: the IC50 was 31 nM.

Consider `COc1cc(C(=O)N2[C@H]3CC[C@@H]2[C@H](N)C3)cc2nc(-c3cc4ccc5nc4n3CCCCCCC(=O)Nc3ccncc3-5)n(C)c12` [Example 90, 17-[5-[(1~{R},2~{R},4~{S})-2-amino-7-azabicyclo[2.2.1]heptane-7-carbonyl]-7-methoxy-1-methyl-benzimidazol-2-yl]-4,8,16,22-tetrazatetracyclo[14.5.2.0^{2,7}.0^{19,23}] tricosa-1(22),2,4,6,17,19(23),20-heptaen-9-one], for which the IC50 was found to be 497 nM.

Regarding `COc1cc(C(=O)N2CCC[C@@H](N)C2)cc2nc(-c3cc4ccc5nc4n3CCCCCc3ccccc3C(=O)N[C@@H]5C)n(C)c12` [Example 28, (2~{R})-17-[5-[(3~{R})-3-aminopiperidine-1-carbonyl]-7-methoxy-1-methyl-benzimidazol-2-yl]-2-methyl-3,16,22-triazatetracyclo[14.5.2.0^{5,10}.0^{19,23}] tricosa-1(22),5,7,9,17,19(23),20-heptaen-4-one], the IC50 was found to be 46 nM.

Consider `COc1cc(C(=O)N2CC[C@@H](OCC(F)F)[C@@H](N)C2)cc2nc(-c3cc4ccc5nc4n3CCCCC[C@@H]3C[C@H]3C(=O)N[C@@H]5C)n(C)c12` [Example 489, (2~{R},5~{R}, 7~{R})-14-[5-[(3~{S},4~{R})-3-amino-4-(2,2-difluoroethoxy)piperidine-1-carbonyl]-7-methoxy-1-methyl-benzimidazol-2-yl]-2-methyl-3,13,19-triazatetracyclo [11.5.2.0^{5,7}.0^{16,20}] icosa-1(19),14,16(20), 17-tetraen-4-one], for which the IC50 was determined as 78 nM.

For the compound `COc1cc(C(=O)N2CCC[C@@H](N)C2)cc2nc(-c3cc4ccc5nc4n3CCCCCCCC(=O)N(C)C5)n(C)c12` [Example 234, 17-[5-[(3˜{R})-3-aminopiperidine-1-carbonyl]-7-methoxy-1-methyl-benzimidazol-2-yl]-10-methyl-1,10,19-triazatricyclo[10.5.2.0^{15,18}]nonadeca-12(19),13,15(18),16-tetraen-9-one], the IC50 was determined as 622 nM.

With `COc1cc(C(=O)N2[C@H]3CC[C@@H]2[C@H](N)C3)cc2nc(-c3cc4ccc5nc4n3CC(F)(F)CCC[C@@H]3C[C@H]3C(=O)N[C@@H]5C)n(C)c12` [Example 642, (2~{R},5~{R},7~{R})-14-[5-[(1~{R},2~{R},4~ {S})-2-amino-7-azabicyclo[2.2.1]heptane-7-carbonyl]-7-methoxy-1-methyl-benzimidazol-2-yl]-11,11-difluoro-2-methyl-3,13,19-triazatetracyclo [11.5.2.0^{5,7}.0^{16,20}] icosa-1(19),14,16(20), 17-tetraen-4-one], the IC50 stood at 23 nM.

As for `COc1cc(C(=O)N2CC[C@@H](OC)[C@@H](N)C2)cc2nc(-c3cc4ccc5nc4n3CC(F)(F)CCC[C@@H]3C[C@H]3C(=O)N(CC(F)F)[C@@H]5C)n(C)c12` [Example 867, (2~{R},5~{R},7~{R})-14-[5-[(3~{S},4~{R})-3-amino-4-methoxy-piperidine-1-carbonyl]-7-methoxy-1-methyl-benzimidazol-2-yl]-3-(2,2-difluoroethyl)-11,11-difluoro-2-methyl-3,13,19-triazatetracyclo[11.5.2.0^ {5,7).0^{16,20}]icosa-1(19),14,16(20),17-tetraen-4-one], the IC50 amounted to 44 nM.

On to `CO[C@@H]1CCN(C(=O)c2cc(F)c3c(c2)nc(-c2cc4ccc5nc4n2CCCCC[C@@H]2CC2C(=O)N[C@@H]5C)n3C)C[C@@H]1N` (stereo partly drawn) [Example 512, (2~{R},5~{R},7~ {R})-14-[5-[(3~{S},4~{R})-3-amino-4-methoxy-piperidine-1-carbonyl]-7-fluoro-1-methyl-benzimidazol-2-yl]-2-methyl-3,13,19-triazatetracyclo[11.5.2.0^ {5,7}.0^{16,20}]icosa-1(19),14,16(20),17-tetraen-4-one], for which the IC50 was 65 nM.

For the origin of these results see patent US11976083B2, “Inhibitors of peptidylarginine deiminases” (Gilead Sciences, Inc., priority 2020, dated 2024).
